Laboratory results as given in US12343321B1, “Method for ameliorating or avoiding the adverse effects of exogenous gonadotropins on reproductive performance” (CHINA AGRICULTURAL UNIVERSITY, priority 2024, dated 2025).
Entries after “also recorded” stand apart in the source; their conditions may differ. Marks after values point to notes of the source that are not given here.

Key:
[1] = tested on: ICR female mice treated with eCG/hCG; assay: Embryo implantation sites after embryo transfer in gonadotropin-treated mice; assay type: in vivo, mouse; conditions: for effect on implantation and live birth, alone or in synergy with NAC/VA: 200 mg/kg BW alone, or 100 + 100 mg/kg BW with NAC/VA; for number of implantation sites compared with control group (exogenous gonadotropin only): 12 embryos transferred on day 4, counted on day 5 of pregnancy, drugs 200 mg/kg BW total i.p. daily, BGJ398 100 μM via uterine horn
Description: (§1) In the animal experiment, ICR female mice (SPF grade, 8 weeks old, 28-30 g) were selected and randomized into groups of 10-18, including normal control group (CON), superovulation stimulation group (eCG/hCG), superovulation stimulation and BGJ398 group (eCG/hCG+BGJ398), superovulation stimulation and NAC single administration group (eCG/hCG+NAC), superovulation stimulation and VA single administration group (eCG/hCG+VA), superovulation stimulation and NAC and VA combined administration group (eCG/hCG+NAC+VA). The temperature of the breeding environment was 22° C., 12-h light/dark cycle was performed, and the mice were provided with free access to water and food. After the animals were purchased, they were acclimated for 5-7 days.
Superovulation stimulation and BGJ398 group (eCG/hCG+BGJ398): Female 8-week-old ICR mice were taken as the research object and injected with 10 IU eCG and […] to induce superovulation, respectively. On day 3 of pregnancy, the mice were injected with 5 μL of FGF receptor inhibitor containing 100 μM BGJ398 inhibitor through the uterine horn. Embryo transfer was then performed on day 4 after the vaginal plug was observed.
(§2) Superovulation stimulation and NAC single administration group (eCG/hCG+NAC): A female 8-week-old ICR mouse was taken as the research object. On the basis of the treatment of the superovulation stimulation group (eCG/hCG), each mouse was intraperitoneally injected with NAC at a dose of 200 mg/kg BW daily 5 days prior to the injection of eCG. Embryo transfer was then performed on day 4 after the vaginal plug was observed. The injection was continued until day 10 of pregnancy.
as §2, with “VA” for “NAC”, “(eCG/hCG+VA):” for “(eCG/hCG+NAC):”, “eCG/hCG.” for “eCG.”
as §2, with “and VA combined” for “single”, “(eCG/hCG+NAC+VA):” for “(eCG/hCG+NAC):”, “with a mixture of” for “with”, “100 mg/kg BW and VA at a dose of 100” for “200”
The mice in the CON group, eCG/hCG group, eCG/hCG+BGJ398 group, eCG/hCG+NAC group, eCG/hCG+VA group, and eCG/hCG+NAC+VA group were separately in the same cage and mated with a vasoligated male mouse. The vaginal plug was checked at about 8 am in the next morning. The pseudopregnant female mouse whose vaginal plug was observed was ready for transfer. The day when the vaginal plug was observed was taken as day 1, and day 4 was the date of blastocyst transfer. […]
Embryo transfer was separately performed on the mice in the CON group, eCG/hCG group, eCG/hCG+BGJ398 group, eCG/hCG+NAC group, eCG/hCG+VA group, and eCG/hCG+NAC+VA group on day 4 of pregnancy; embryo implantation sites were counted by orbital injection of Chicago blue on day 5 of pregnancy. […]

[2] = tested on: ICR female mice treated with eCG/hCG; assay: Live birth after embryo transfer in gonadotropin-treated mice; assay type: in vivo; conditions: for live births compared with control group (exogenous gonadotropin only): 12 embryos transferred on day 4, counted on day of delivery, drugs 200 mg/kg BW total i.p. daily
Description: Superovulation stimulation and BGJ398 group (eCG/hCG+BGJ398): Female 8-week-old ICR mice were taken as the research object and injected with 10 IU eCG and PMSG to induce superovulation, respectively. On day 3 of pregnancy, the mice were injected with 5 μL of FGF receptor inhibitor containing 100 μM BGJ398 inhibitor through the uterine horn. Embryo transfer was then performed on day 4 after the vaginal plug was observed.
Superovulation stimulation and VA single administration group (eCG/hCG+VA): A female 8-week-old ICR mouse was taken as the research object. On the basis of the treatment of the superovulation stimulation group (eCG/hCG), each mouse was intraperitoneally injected with VA at a dose of 200 mg/kg BW daily 5 days prior to the injection of eCG/hCG. Embryo transfer was then performed on day 4 after the vaginal plug was observed. The injection was continued until day 10 of pregnancy.
Superovulation stimulation and NAC and VA combined administration group (eCG/hCG+NAC+VA): A female 8-week-old ICR mouse was taken as the research object. On the basis of the treatment of the superovulation stimulation group (eCG/hCG), each mouse was intraperitoneally injected with a mixture of NAC at a dose of 100 mg/kg BW and VA at a dose of 100 mg/kg BW daily 5 days prior to the injection of eCG. Embryo transfer was then performed on day 4 after the vaginal plug was observed. The injection was continued until day 10 of pregnancy.
Embryo transfer was separately performed on the mice in the CON group, eCG/hCG group, eCG/hCG+BGJ398 group, eCG/hCG+NAC group, eCG/hCG+VA group, and eCG/hCG+NAC+VA group on day 4 of pregnancy, and the mice were then placed in the animal house for normal feeding. On the day of delivery, the number born alive index was counted. […]

pERK = assay: Molecular detection of pERK in mouse endometrium after eCG/hCG treatment; assay type: in vivo; conditions: day 4 after vaginal plug, NAC 200 mg/kg BW i.p. daily, BGJ398 100 μM, 5 μL via uterine horn, or NAC 100 + VA 100 mg/kg BW
Description: (§3) 2.2 Molecular Regulation Effect of N-Acetylcysteine in Combination with Vitamin A on Alleviating Uterine Receptivity Decrease Induced by Gonadotropin Treatments
as §1
(§4) Control group (CON): A female 8-week-old ICR mouse was taken as the research object, subjected to natural estrus, mated with a vasoligated male mouse, and was taken as the control group. The uterus of the mouse was then separated on day 4 after the vaginal plug was observed, namely, when the uterine receptivity was established, and the detection of a plurality of signal molecules was carried out. […]

Gilts = assay: Reproductive performance of gilts in batch farrowing with FTAI (pregnancy rate, farrowing rate); assay type: in vivo, pig; conditions: for Estrus detection rate (%) / Farrowing rate (%) / Pregnancy Rate (%): batch farrowing with FTAI (eCG/GnRH), drugs in feed, 200 mg/kg BW total daily; for female pig farrowing rate compared with batch farrowing with FTAI (control group) / female pig pregnancy rate compared with batch farrowing with FTAI (control group): eCG/GnRH, result in words
Description: Gilts with the weight of 120-140 kg and the age of 200-250 days were selected for the experiment, which were divided into the batch farrowing with FTAI (CON) group, batch farrowing supplemented with NAC (NAC) group, batch farrowing supplemented with VA (VA) group, batch farrowing with combined administration of NAC and VA (NAC+VA 1:1) group, batch farrowing with combined administration of NAC and VA (NAC+VA […]) group, and batch farrowing with combined administration of NAC and VA (NAC+VA 9:1) group. Each group had 48-55 gilts.
The technical process of batch farrowing of the gilts in the CON group (namely the batch farrowing with FTAI scheme) was as follows: 1) estrus synchronization treatment: the gilt orally taken altrenogest for 18 days; 2) after an interval of 42 h after the estrus synchronization treatment, exogenous gonadotropin eCG was injected to induce follicular development synchronization; 3) after an interval of 80 h after eCG injection, an ovulatio induction drugs (GnRH) was injected. After an interval of 24 h after the injection, a first mating was carried out, and then after an interval of 16 h, a second mating was carried out. Pregnancy examination was then performed and the gilts were fed normally until delivery.
On the basis of the technical process of batch farrowing of the gilts in the CON group, in the NAC group, VA group, and NAC+VA group, NAC at a dose of 200 mg/kg BW, VA at a dose of 200 mg/kg BW, combined addition of NAC (100 mg/kg BW) and VA (100 mg/kg BW), combined addition of NAC (20 mg/kg BW) and VA (180 mg/kg BW), and combined addition of NAC (180 mg/kg BW) and VA (20 mg/kg BW) were separately added into the feed daily 14 days prior to the eCG injection until the end of first pregnancy examination (day 30-32 of pregnancy). The gilts were then fed normally until delivery.
The pregnancy rate of the female pigs was counted through pregnancy examination; the farrowing rate of the female pigs was counted during delivery. The pregnancy rate and the farrowing rate of female pigs from different treatment groups were calculated as follows: Female pig pregnancy rate=pregnant female pig count/mated female pig count×100% Female pig farrowing rate=delivery female pig count/mated female pig count×100%

ERα = assay: Molecular detection of ERα in mouse endometrium after eCG/hCG treatment; assay type: in vivo; conditions: day 4 after vaginal plug, VA 200 mg/kg BW i.p. daily alone, or NAC 100 + VA 100 mg/kg BW
Description: as §3, §1, §4

| Compound | effect on implantation and live birth, alone or in synergy with NAC/VA [1] | toxicity to fetal development after implantation ([2]; BGJ398 100 μM, 5 μL via uterine horn on day 3) | excessive phosphorylation of pERK (exogenous gonadotropin-induced pERK overexpression) (pERK) | number of implantation sites compared with control group (exogenous gonadotropin only) [1] | Estrus detection rate (%) (Gilts) | Farrowing rate (%) (Gilts) | Pregnancy Rate (%) (Gilts) | female pig farrowing rate compared with batch farrowing with FTAI (control group) (Gilts) | female pig pregnancy rate compared with batch farrowing with FTAI (control group) (Gilts) | expression of ERα (exogenous gonadotropin-induced ERα overexpression) (ERα) | live births compared with control group (exogenous gonadotropin only) [2] |
| --- | --- | --- | --- | --- | --- | --- | --- | --- | --- | --- | --- |
| O=C1O[C@H]([C@@H](O)CO)C(O)=C1O [VC, vitamin C] | do not work well |  |  |  |  |  |  |  |  |  |  |
| CCN1CCN(c2ccc(Nc3cc(N(C)C(=O)Nc4c(Cl)c(OC)cc(OC)c4Cl)ncn3)cc2)CC1 [BGJ398] |  | highly toxic; also recorded: negatively affect fetal development; also recorded: fetus regressed | significantly inhibit | significantly higher; also recorded: significantly increase |  |  |  |  |  |  |  |
| CC1=C(/C=C/C(C)=C/C=C/C(C)=C/CO)C(C)(C)CCC1 [VA, vitamin A] |  |  |  | increased to some extent | 93.75% | 83.33^b % | 89.58^b % | significantly improve | significantly improve | significantly inhibits | increased to some extent |
| COc1ccc2[nH]cc(CCNC(C)=O)c2c1 [MT, melatonin] | do not work well |  |  |  |  |  |  |  |  |  |  |
| CC(=O)N[C@@H](CS)C(=O)O [NAC, N-acetyl-L-cysteine] |  |  | significantly inhibit | increased to some extent | 88.89% | 81.48^b % | 85.19^b % | significantly improve | significantly improve |  | increased to some extent |
